Usually inhibition stands for the drop in the measured response relative to a control, in per cent.

Inhibition data for 16 compounds are collected here from US12122763B2, “Substituted piperidines for androgen receptor degradation” (UBIX THERAPEUTICS, INC., priority 2020, dated 2024).

The experiment concerns the target T1, Androgen Receptor (AR) protein (Homo sapiens, UniProt P10275, T878A).
T1 construct: endogenous in cells; host or cells: LNCaP
Put plainly: Androgen Receptor (AR) protein degradation assay in LNCaP cells, western blotting. The note with it: 20 h; for inhibition at 0.01 µM: 0.01 μM compound; for inhibition at 0.1 µM: 0.1 μM compound; for inhibition at 1 µM: 1 μM compound. Type of experiment: cell-based. A digest of the protocol:
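AR protein level was detected by western blot (ECL) against GAPDH or β-actin controls, with 8 μg lysate protein loaded per lane after BCA quantification. Lysates came from LNCaP cells exposed to test compound for 20 h, following 3 days of growth in RPMI/10% FBS.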
On the technique in general: Immunoblotting shows a protein as a band on a membrane.

T1 sequence (P10275 whole entry T878A): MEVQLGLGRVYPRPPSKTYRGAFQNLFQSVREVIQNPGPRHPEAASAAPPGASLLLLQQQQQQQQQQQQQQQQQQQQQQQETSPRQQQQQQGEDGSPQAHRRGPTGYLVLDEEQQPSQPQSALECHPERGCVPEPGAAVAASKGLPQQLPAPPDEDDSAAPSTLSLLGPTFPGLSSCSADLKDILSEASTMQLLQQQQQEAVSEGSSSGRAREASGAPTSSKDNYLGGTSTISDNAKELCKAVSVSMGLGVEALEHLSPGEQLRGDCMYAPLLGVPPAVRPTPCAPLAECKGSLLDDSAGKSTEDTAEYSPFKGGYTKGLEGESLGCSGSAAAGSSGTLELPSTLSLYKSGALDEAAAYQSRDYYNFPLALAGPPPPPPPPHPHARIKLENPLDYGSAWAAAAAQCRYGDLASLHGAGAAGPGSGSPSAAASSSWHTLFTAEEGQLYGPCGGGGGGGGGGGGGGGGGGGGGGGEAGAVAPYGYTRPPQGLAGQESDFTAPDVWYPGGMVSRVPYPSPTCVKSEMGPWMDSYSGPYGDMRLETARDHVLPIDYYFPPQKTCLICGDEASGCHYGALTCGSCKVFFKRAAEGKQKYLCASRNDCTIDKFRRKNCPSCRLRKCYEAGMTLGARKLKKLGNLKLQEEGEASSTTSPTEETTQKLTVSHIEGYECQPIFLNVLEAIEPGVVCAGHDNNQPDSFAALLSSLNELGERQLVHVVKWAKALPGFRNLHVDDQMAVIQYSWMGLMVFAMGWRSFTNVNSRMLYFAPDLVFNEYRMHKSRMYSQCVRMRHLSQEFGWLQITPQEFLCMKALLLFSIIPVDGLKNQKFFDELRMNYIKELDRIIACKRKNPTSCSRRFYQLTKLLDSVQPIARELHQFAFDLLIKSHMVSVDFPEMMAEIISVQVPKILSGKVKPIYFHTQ
T1 sequence (Q96SW2 whole entry partner): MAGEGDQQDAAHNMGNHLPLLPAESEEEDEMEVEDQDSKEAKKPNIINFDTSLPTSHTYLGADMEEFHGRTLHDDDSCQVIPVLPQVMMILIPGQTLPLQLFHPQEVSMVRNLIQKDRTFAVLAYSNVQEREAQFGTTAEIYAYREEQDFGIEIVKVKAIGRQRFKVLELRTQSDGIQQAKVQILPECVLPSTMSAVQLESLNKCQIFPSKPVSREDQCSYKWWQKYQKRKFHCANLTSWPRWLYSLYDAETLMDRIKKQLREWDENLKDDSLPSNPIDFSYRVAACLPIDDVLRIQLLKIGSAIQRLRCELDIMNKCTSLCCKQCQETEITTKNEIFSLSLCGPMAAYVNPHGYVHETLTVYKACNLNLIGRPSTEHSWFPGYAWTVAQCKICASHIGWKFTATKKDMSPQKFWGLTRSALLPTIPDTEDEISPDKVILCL

For `N#Cc1ccc(N2CCC(F)(C(=O)Nc3ccc(N4CCC(CN5CCN(CC6CCN(c7ccc8c(c7)CN(C7CCC(=O)NC7=O)C8=O)CC6)CC5)CC4)cn3)CC2)cc1C(F)(F)F` (stereo not drawn) [Example 144, 1-(4-cyano-3-(trifluoromethyl)phenyl)-N-(5-(4-((4-((1-(2-(2,6-dioxopiperidin-3-yl)-1-oxoisoindolin-5-yl)piperidin-4-yl)methyl)piperazin-1-yl)methyl)piperidin-1-yl)pyridin-2-yl)-4-fluoropiperidine-4-carboxamide], the inhibition at 0.01 µM was 43%, the inhibition at 0.1 µM was 84% and the inhibition at 1 µM is 95%.

Regarding `N#Cc1ncc(N2CCC(C(=O)Nc3ccc(N4CCC(CN5CCN(CC6CCN(c7ccc8c(c7)CN(C7CCC(=O)NC7=O)C8=O)CC6)CC5)CC4)cn3)CC2)cc1C(F)(F)F` (stereo not drawn) [Example 145, 1-(6-cyano-5-(trifluoromethyl)pyridin-3-yl)-N-(5-(4-((4-((1-(2-(2,6-dioxopiperidin-3-yl)-1-oxoisoindolin-5-yl)piperidin-4-yl)methyl)piperazin-1-yl)methyl)piperidin-1-yl)pyridin-2-yl)piperidine-4-carboxamide], the inhibition at 0.01 µM was determined as 20%, the inhibition at 0.1 µM worked out at 84% and the inhibition at 1 µM was 88%.

For `N#Cc1ccc(N2CCC(C(=O)Nc3ccc(N4CCC(CN5CCC(Oc6ccc7c(c6)C(=O)N(C6CCC(=O)NC6=O)C7=O)CC5)CC4)cn3)CC2)cc1C(F)(F)F` (stereo not drawn) [Example 146, 1-(4-cyano-3-(trifluoromethyl)phenyl)-N-(5-(4-((4-((2-(2,6-dioxopiperidin-3-yl)-1,3-dioxoisoindolin-5-yl)oxy)piperidin-1-yl)methyl)piperidin-1-yl)pyridin-2-yl)piperidine-4-carboxamide], the inhibition at 0.01 µM came to 67%, the inhibition at 0.1 µM worked out at 97% and the inhibition at 1 µM came out at 98%.

Take `N#Cc1ccc(N2CCC(C(=O)Nc3ccc(N4CCC(CN5CCC(COc6ccc7c(c6)C(=O)N(C6CCC(=O)NC6=O)C7=O)CC5)CC4)cn3)CC2)cc1C(F)(F)F` (stereo not drawn) [Example 147, 1-(4-cyano-3-(trifluoromethyl)phenyl)-N-(5-(4-((4-(((2-(2,6-dioxopiperidin-3-yl)-1,3-dioxoisoindolin-5-yl)oxy)methyl)piperidin-1-yl)methyl)piperidin-1-yl)pyridin-2-yl)piperidine-4-carboxamide]: the inhibition at 0.01 µM turned out to be 68%, the inhibition at 0.1 µM was 96% and the inhibition at 1 µM amounted to 97%.

Take `N#Cc1ccc(N2CCC(C(=O)Nc3ccc(N4CC(CN5CCC(Oc6ccc7c(c6)C(=O)N(C6CCC(=O)NC6=O)C7=O)CC5)C4)cn3)CC2)cc1C(F)(F)F` (stereo not drawn) [Example 148, 1-(4-cyano-3-(trifluoromethyl)phenyl)-N-(5-(3-((4-((2-(2,6-dioxopiperidin-3-yl)-1,3-dioxoisoindolin-5-yl)oxy)piperidin-1-yl)methyl)azetidin-1-yl)pyridin-2-yl)piperidine-4-carboxamide]: the inhibition at 0.01 µM came out at 27%, the inhibition at 0.1 µM amounted to 87% and the inhibition at 1 µM is 93%.

Take `N#Cc1ccc(N2CCC(C(=O)Nc3ccc(N4CC(CN5CCC(COc6ccc7c(c6)C(=O)N(C6CCC(=O)NC6=O)C7=O)CC5)C4)cn3)CC2)cc1C(F)(F)F` (stereo not drawn) [Example 149, 1-(4-cyano-3-(trifluoromethyl)phenyl)-N-(5-(3-((4-(((2-(2,6-dioxopiperidin-3-yl)-1,3-dioxoisoindolin-5-yl)oxy)methyl)piperidin-1-yl)methyl)azetidin-1-yl)pyridin-2-yl)piperidine-4-carboxamide]: the inhibition at 0.01 µM is 56%, the inhibition at 0.1 µM is 97% and the inhibition at 1 µM came to 97%.

Consider `N#Cc1ccc(N2CCC(C(=O)Nc3ccc(N4CCC(OCCN5CCN(c6ccc7c(c6)C(=O)N(C6CCC(=O)NC6=O)C7=O)CC5)CC4)cn3)CC2)cc1C(F)(F)F` (stereo not drawn) [Example 150, 1-(4-cyano-3-(trifluoromethyl)phenyl)-N-(5-(4-(2-(4-(2-(2,6-dioxopiperidin-3-yl)-1,3-dioxoisoindolin-5-yl)piperazin-1-yl)ethoxy)piperidin-1-yl)pyridin-2-yl)piperidine-4-carboxamide], for which the inhibition at 0.01 µM was found to be 55%, the inhibition at 0.1 µM turned out to be 97% and the inhibition at 1 µM was determined as 99%.

As to `N#Cc1ccc(N2CCC(C(=O)Nc3ccc(N4CCC(OCCN5CCN(c6ccc7c(c6)C(=O)N(C6CCC(=O)NC6=O)C7=O)CC5)CC4)cn3)CC2)cc1Cl` (stereo not drawn) [Example 151, 1-(3-chloro-4-cyanophenyl)-N-(5-(4-(2-(4-(2-(2,6-dioxopiperidin-3-yl)-1,3-dioxoisoindolin-5-yl)piperazin-1-yl)ethoxy)piperidin-1-yl)pyridin-2-yl)piperidine-4-carboxamide], the inhibition at 0.01 µM is -14%, the inhibition at 0.1 µM was 76% and the inhibition at 1 µM was found to be 92%.

As for `N#Cc1ccc(N2CCC(C(=O)Nc3ccc(N4CCC(OCCN5CCN(c6cccc7c6C(=O)N(C6CCC(=O)NC6=O)C7=O)CC5)CC4)cn3)CC2)cc1C(F)(F)F` (stereo not drawn) [Example 152, 1-(4-cyano-3-(trifluoromethyl)phenyl)-N-(5-(4-(2-(4-(2-(2,6-dioxopiperidin-3-yl)-1,3-dioxoisoindolin-4-yl)piperazin-1-yl)ethoxy)piperidin-1-yl)pyridin-2-yl)piperidine-4-carboxamide], the inhibition at 0.01 µM was -46%, the inhibition at 0.1 µM amounted to 28% and the inhibition at 1 µM turned out to be 29%.

As for `N#Cc1ccc(N2CCC(C(=O)Nc3ccc(N4CCC(O)(CCN5CCN(c6ccc7c(c6)C(=O)N(C6CCC(=O)NC6=O)C7=O)CC5)CC4)cn3)CC2)cc1C(F)(F)F` (stereo not drawn) [Example 153, 1-(4-cyano-3-(trifluoromethyl)phenyl)-N-(5-(4-(2-(4-(2-(2,6-dioxopiperidin-3-yl)-1,3-dioxoisoindolin-5-yl)piperazin-1-yl)ethyl)-4-hydroxypiperidin-1-yl)pyridin-2-yl)piperidine-4-carboxamide], the inhibition at 0.01 µM was determined as 56%, the inhibition at 0.1 µM is 95% and the inhibition at 1 µM was 97%.

Turning to `N#Cc1ccc(N2CCC(C(=O)Nc3ccc(N4CCC(C(=O)N5CC6(CCN(c7ccc8c(c7)C(=O)N(C7CCC(=O)NC7=O)C8=O)CC6)C5)CC4)cn3)CC2)cc1C(F)(F)F` (stereo not drawn) [Example 154, 1-(4-cyano-3-(trifluoromethyl)phenyl)-N-(5-(4-(7-(2-(2,6-dioxopiperidin-3-yl)-1,3-dioxoisoindolin-5-yl)-2,7-diazaspiro[3.5]nonane-2-carbonyl)piperidin-1-yl)pyridin-2-yl)piperidine-4-carboxamide], the inhibition at 0.01 µM was determined as 26%, the inhibition at 0.1 µM worked out at 86% and the inhibition at 1 µM was 91%.

As for `N#Cc1ccc(N2CCC(C(=O)Nc3cnc(N4CCC(CN5CC6(CCN(c7ccc8c(c7)C(=O)N(C7CCC(=O)NC7=O)C8=O)CC6)C5)CC4)cn3)CC2)cc1C(F)(F)F` (stereo not drawn) [Example 155, 1-(4-cyano-3-(trifluoromethyl)phenyl)-N-(5-(4-((7-(2-(2,6-dioxopiperidin-3-yl)-1,3-dioxoisoindolin-5-yl)-2,7-diazaspiro[3.5]nonan-2-yl)methyl)piperidin-1-yl)pyrazin-2-yl)piperidine-4-carboxamide], the inhibition at 0.01 µM amounted to 38%, the inhibition at 0.1 µM was 89% and the inhibition at 1 µM was 98%.

Consider `N#Cc1ccc(N2CCC(C(=O)Nc3cnc(N4CCC(CCN5CCN(c6ccc7c(c6)C(=O)N(C6CCC(=O)NC6=O)C7=O)CC5)CC4)cn3)CC2)cc1C(F)(F)F` (stereo not drawn) [Example 156, 1-(4-cyano-3-(trifluoromethyl)phenyl)-N-(5-(4-(2-(4-(2-(2,6-dioxopiperidin-3-yl)-1,3-dioxoisoindolin-5-yl)piperazin-1-yl)ethyl)piperidin-1-yl)pyrazin-2-yl)piperidine-4-carboxamide], for which the inhibition at 0.01 µM is 35%, the inhibition at 0.1 µM was found to be 76% and the inhibition at 1 µM is 96%.

In the case of `N#Cc1ccc(N2CCC(C(=O)Nc3ncc(N4CCC(CN5CCN(CC6CCN(c7ccc8c(c7)C(=O)N(C7CCC(=O)NC7=O)C8=O)CC6)CC5)CC4)cn3)CC2)cc1C(F)(F)F` (stereo not drawn) [Example 157, 1-(4-cyano-3-(trifluoromethyl)phenyl)-N-(5-(4-((4-((1-(2-(2,6-dioxopiperidin-3-yl)-1,3-dioxoisoindolin-5-yl)piperidin-4-yl)methyl)piperazin-1-yl)methyl)piperidin-1-yl)pyrimidin-2-yl)piperidine-4-carboxamide], the inhibition at 0.01 µM came to 0%, the inhibition at 0.1 µM came out at 33% and the inhibition at 1 µM was 78%.

Consider `N#Cc1ccc(N2CCC(C(=O)Nc3ncc(N4CCC(CN5CCN(C[C@H]6CCN(c7ccc8c(c7)C(=O)N(C7CCC(=O)NC7=O)C8=O)C6)CC5)CC4)cn3)CC2)cc1C(F)(F)F` (stereo partly drawn) [Example 158, 1-(4-cyano-3-(trifluoromethyl)phenyl)-N-(5-(4-((4-(((3R)-1-(2-(2,6-dioxopiperidin-3-yl)-1,3-dioxoisoindolin-5-yl)pyrrolidin-3-yl)methyl)piperazin-1-yl)methyl)piperidin-1-yl)pyrimidin-2-yl)piperidine-4-carboxamide], for which the inhibition at 0.01 µM was -7%, the inhibition at 0.1 µM came out at 27% and the inhibition at 1 µM is 65%.

With `N#Cc1ccc(N2CCC(C(=O)Nc3ncc(N4CCC(CN5CCN(CC6CCN(c7cc8c(cc7F)C(=O)N(C7CCC(=O)NC7=O)C8=O)CC6)CC5)CC4)cn3)CC2)cc1C(F)(F)F` (stereo not drawn) [Example 159, 1-(4-cyano-3-(trifluoromethyl)phenyl)-N-(5-(4-((4-((1-(2-(2,6-dioxopiperidin-3-yl)-6-fluoro-1,3-dioxoisoindolin-5-yl)piperidin-4-yl)methyl)piperazin-1-yl)methyl)piperidin-1-yl)pyrimidin-2-yl)piperidine-4-carboxamide], the inhibition at 0.01 µM was -16%, the inhibition at 0.1 µM is -5% and the inhibition at 1 µM is 84%.
